The values that follow come from patent US20140303164A1, “THERAPEUTIC COMPOUNDS” (Gilead Sciences, Inc., priority 2013, published 2014).

Data set [1] relates to HIV-IIIb. Description: Test A: Antiviral Assay in MT4 Cells. The following applies: Human immunodeficiency virus 1, IIIB, MT4, 120 h; for inhibition at 0.2 µM: read-out: % inhibition at 0.2 μM; for inhibition at 2 µM: read-out: % inhibition at 2 μM. The class given is cell-based, HIV-1. As for the experimental part:
Test A: Antiviral Assay in MT4 Cells
MT-4 cells were next mixed with HIV-IIIb at an m.o.i of 0.003 for 1 hour, after which time 35 μL of virus/cell mixture (2000 cells) was immediately added to each well containing 40 μL of diluted compound. The plates were then incubated at 37° C. for 5 days. […] Cell lysis was carried out by incubating at room temperature for 10 min and then chemiluminescence was read.

Data set [2] can be described thus: Test B: Cytotoxicity Assay. The class given is cell-based. The following applies: human, uninfected MT-4 cells, same protocol as Test A. Put shortly: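 Uninfected MT-4 cells (2000 per well) incubated with diluted compound at 37° C. for 5 days, following the antiviral protocol without HIV-IIIb.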

For `CC(C)(O)C#Cc1ncc(-c2ccc3c(c2)C(=O)NC3)c([C@H](Cc2cc(F)cc(F)c2)NC(=O)Cn2nc(C(F)(F)F)c3c2C(F)(F)[C@@H]2C[C@H]32)n1` [Compound 22C, 2-((3bS,4aR)-5,5-difluoro-3-(trifluoromethyl)-3b,4,4a,5-tetrahydro-1H-cyclopropa[3,4]cyclopenta[1,2-c]pyrazol-1-yl)-N—((S)-2-(3,5-difluorophenyl)-1-(2-(3-hydroxy-3-methylbut-1-yn-1-yl)-5-(3-oxoisoindolin-5-yl)pyrimidin-4-yl)ethyl)acetamide], in data set [1], the inhibition at 0.2 µM came to 92% and the inhibition at 2 µM amounted to 92%. Further, the midpoint of cytotoxicity in data set [2], the CC50 at 5 days, lay at 4.95 µM.

As to `Cn1nc(NS(C)(=O)=O)c2c(Cl)ccc(-c3ccc(C#CC(C)(C)O)nc3[C@H](Cc3cc(F)cc(F)c3)NC(=O)Cn3nc4c(c3Cl)CCCC4)c21` [Compound 125D, (S)—N-(1-(3-(4 chloro-1-methyl-3-(methylsulfonamido)-1H-indazol-7-yl)-6-(3-hydroxy-3-methylbut-1-yn-1-yl)pyridin-2-yl)-2-(3,5-difluorophenyl)ethyl)-2-(3-chloro-4,5,6,7-tetrahydro-2H-indazol-2-yl)acetamide], in data set [1], the inhibition at 0.2 µM is 96% and the inhibition at 2 µM is 97%. Besides, the CC50 at 5 days in data set [2] was determined as 13.6 µM.

Regarding `Cn1nc(NC(=O)CNC2CC2)c2c(Cl)ccc(-c3ccc(C#CC(C)(C)O)nc3[C@H](Cc3cc(F)cc(F)c3)NC(=O)Cn3nc(C(F)F)c4c3C(F)(F)[C@@H]3C[C@H]43)c21` [Compound 102, N—((S)-1-(3-(4-chloro-3-(2-(cyclopropylamino)acetamido)-1-methyl-1H-indazol-7-yl)-6-(3-hydroxy-3-methylbut-1-yn-1-yl)pyridin-2-yl)-2-(3,5-difluorophenyl)ethyl)-2-((3b-S,4aR)-3-(difluoromethyl)-5,5-difluoro-3b,4,4a,5-tetrahydro-1H-cyclopropa[3,4]cyclopenta[1,2-c]pyrazol-1-yl)acetamide], in data set [1], the inhibition at 0.2 µM amounted to 100% and the inhibition at 2 µM is 100%. In addition, the CC50 at 5 days in data set [2] is 5.82 µM.

Regarding `Cn1cc(-c2ccc(-c3cccc4c(NS(C)(=O)=O)nn(C)c34)c([C@H](Cc3cc(F)cc(F)c3)NC(=O)Cn3nc(C(F)(F)F)c4c3C(F)(F)[C@@H]3C[C@H]43)n2)cn1` [Compound 60, 2-((3bS,4aR)-5,5-difluoro-3-(trifluoromethyl)-3b,4,4a,5-tetrahydro-1H-cyclopropa[3,4]cyclopenta[1,2-c]pyrazol-1-yl)-N—((S)-2-(3,5-difluorophenyl)-1-(6-(1-methyl-1H-pyrazol-4-yl)-3-(1-methyl-3-(methylsulfonamido)-1H-indazol-7-yl)pyridin-2-yl)ethyl)acetamide], in data set [1], the inhibition at 0.2 µM was 86% and the inhibition at 2 µM is 96%. This molecule also had a CC50 at 5 days in data set [2] of 14.3 µM.

As for `CCn1nc(N)c2cccc(-c3ccc(C#CC(C)(C)O)nc3[C@H](Cc3cc(F)cc(F)c3)NC(=O)Cn3nc(C(F)(F)F)c4c3C(F)(F)[C@@H]3C[C@H]43)c21` [Compound 45G, N—((S)-1-(3-(3-amino-1-ethyl-1H-indazol-7-yl)-6-(3-hydroxy-3-methylbut-1-yn-1-yl)pyridin-2-yl)-2-(3,5-difluorophenyl)ethyl)-2-((3b-S,4aR)-5,5-difluoro-3-(trifluoromethyl)-3b,4,4a,5-tetrahydro-1H-cyclopropa[3,4]cyclopenta[1,2-c]pyrazol-1-yl)acetamide], in data set [1], the inhibition at 0.2 µM was 92% and the inhibition at 2 µM stood at 92%. In data set [2], this molecule returned a half-maximal cytotoxic concentration (CC50) at 5 days of 10.4 µM.
